Columns and labels:
[1] = Metabolic stability, liver microsomes; type: in vitro ADME; conditions: Dog, 37 °C, read-out: Liver microsomes t1/2 (converted)
CYP3A4 = target: T1, CYP3A4 (Homo sapiens, UniProt P08684); assay: CYP isoforms inhibition; type: in vitro ADME; conditions: 5-dose, 3-fold dilution starting at 30 µM
T1 construct: Cambridge Bioscience Limited (ran the assay)
Protocol: (§1) or absence of enzyme cofactors. The assay was performed microsomes. (Supplementary Table 7).
(§2) with the respective reference samples (i.e. without measured at Cambridge Bioscience Limited (except
(§3) cofactors). After incubation, drug transformation by liver CYP1A2 inhibition which was measured in-house). […]
(§4) The control compound
(§5) The analysis of two standard compounds (i.e. positive a very weak potential for CYP inhibition with IC50
(§6) and negative controls) was included. […]

CYP2D6 = target: T2, CYP2D6 (Homo sapiens, UniProt P10635); assay: CYP isoforms inhibition; type: in vitro ADME; conditions: 5-dose, 3-fold dilution starting at 30 µM
T2 construct: Cambridge Bioscience Limited (ran the assay)
T2 sequence (P10635 whole entry, canonical isoform): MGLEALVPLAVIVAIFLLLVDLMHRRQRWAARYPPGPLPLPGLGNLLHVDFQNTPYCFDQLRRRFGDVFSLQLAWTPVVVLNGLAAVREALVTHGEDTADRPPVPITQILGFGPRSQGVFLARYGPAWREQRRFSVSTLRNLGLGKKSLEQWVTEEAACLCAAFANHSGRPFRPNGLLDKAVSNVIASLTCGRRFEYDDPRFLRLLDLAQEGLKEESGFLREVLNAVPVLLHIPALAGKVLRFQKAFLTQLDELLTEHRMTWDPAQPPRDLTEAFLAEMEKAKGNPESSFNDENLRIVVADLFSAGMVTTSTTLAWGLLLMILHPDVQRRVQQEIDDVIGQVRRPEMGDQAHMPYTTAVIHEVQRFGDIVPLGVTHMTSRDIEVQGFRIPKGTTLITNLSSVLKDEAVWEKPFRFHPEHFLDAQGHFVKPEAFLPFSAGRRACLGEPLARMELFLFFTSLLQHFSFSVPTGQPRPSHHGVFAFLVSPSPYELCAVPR
Protocol: as §1, §2, §3, §4, §5, §6

CYP2C19 = target: T3, CYP2C19 (Homo sapiens, UniProt P33261); assay: CYP isoforms inhibition; type: in vitro ADME; conditions: 5-dose, 3-fold dilution starting at 30 µM
T3 construct: Cambridge Bioscience Limited (ran the assay)
T3 sequence (P33261 whole entry, canonical isoform): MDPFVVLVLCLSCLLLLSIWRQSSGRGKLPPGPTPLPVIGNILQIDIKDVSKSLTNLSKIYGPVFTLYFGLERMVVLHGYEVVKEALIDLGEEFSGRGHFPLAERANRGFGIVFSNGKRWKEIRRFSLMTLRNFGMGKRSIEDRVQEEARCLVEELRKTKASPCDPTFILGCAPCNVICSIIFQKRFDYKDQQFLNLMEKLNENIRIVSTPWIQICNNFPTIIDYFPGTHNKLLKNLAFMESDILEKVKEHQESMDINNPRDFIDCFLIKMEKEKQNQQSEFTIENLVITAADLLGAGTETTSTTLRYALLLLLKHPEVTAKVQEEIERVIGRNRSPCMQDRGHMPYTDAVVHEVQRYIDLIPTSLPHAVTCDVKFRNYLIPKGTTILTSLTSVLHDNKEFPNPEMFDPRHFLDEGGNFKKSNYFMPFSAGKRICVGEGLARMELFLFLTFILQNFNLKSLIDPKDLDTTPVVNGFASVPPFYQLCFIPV
Protocol: as §1, §2, §3, §4, §5, §6

PIM1 = PIM1 (Homo sapiens, UniProt P11309); assay: KINOMEscan Kd (DiscoverX); type: binding
PIM1, sequence (P11309 whole entry): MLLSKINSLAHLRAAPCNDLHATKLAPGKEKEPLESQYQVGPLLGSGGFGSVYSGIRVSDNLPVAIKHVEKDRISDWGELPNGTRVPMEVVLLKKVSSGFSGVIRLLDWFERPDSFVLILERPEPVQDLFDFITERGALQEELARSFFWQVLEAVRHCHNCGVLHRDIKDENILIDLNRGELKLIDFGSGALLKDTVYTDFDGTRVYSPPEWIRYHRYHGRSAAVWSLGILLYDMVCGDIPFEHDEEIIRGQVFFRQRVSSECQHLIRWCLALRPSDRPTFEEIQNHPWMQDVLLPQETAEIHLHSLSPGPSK

MOLM-16 = assay: MTS viability assay, 72 h; conditions: MOLM16, 72 h
Protocol: On the same day, 50 μL of medium containing tested inhibitor was added to the wells. Each compound was tested at 8 concentrations, in triplicates. As a negative control, the medium containing 0.1% DMSO was used. […] Staurosporine was used at 10 μM as a positive control. One the day of drug addition, basal signal from untreated cells was measured from in triplicate to determine time zero (T0). […] GI50 and LC50 values were extrapolated from a variable (four-parameter) dose-response curve fitted in GraphPad Prism.

[2] = Metabolic stability, liver S9 fraction; type: in vitro ADME; conditions: Mouse, 37 °C, read-out: Liver S9 fraction t1/2 (converted)
CYP2B6 = target: T4, CYP2B6 (Homo sapiens, UniProt P20813); assay: CYP isoforms inhibition; type: in vitro ADME; conditions: 5-dose, 3-fold dilution starting at 30 µM
T4 construct: Cambridge Bioscience Limited (ran the assay)
T4 sequence (P20813 whole entry, canonical isoform): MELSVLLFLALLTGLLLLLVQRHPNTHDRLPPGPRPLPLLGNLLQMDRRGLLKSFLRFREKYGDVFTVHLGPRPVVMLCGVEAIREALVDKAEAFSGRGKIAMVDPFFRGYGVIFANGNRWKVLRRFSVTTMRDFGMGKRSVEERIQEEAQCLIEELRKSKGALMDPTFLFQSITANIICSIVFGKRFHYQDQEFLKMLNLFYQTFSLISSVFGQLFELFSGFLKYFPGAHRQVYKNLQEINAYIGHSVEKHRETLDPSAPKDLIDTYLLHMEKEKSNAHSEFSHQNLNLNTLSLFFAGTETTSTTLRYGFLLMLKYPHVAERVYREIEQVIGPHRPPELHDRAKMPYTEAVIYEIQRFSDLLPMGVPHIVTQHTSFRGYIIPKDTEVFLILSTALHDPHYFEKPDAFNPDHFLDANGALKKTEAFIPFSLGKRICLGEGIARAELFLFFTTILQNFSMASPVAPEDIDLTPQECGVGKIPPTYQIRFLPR
Protocol: as §1, §2
(§7) cofactors). After incubation, drug transformation by liver CYP1A2 inhibition which was measured in-house). The
(§8) enzymes was terminated by adding cold acetonitrile.
(§9) loss of compound was determined by LC-MS analysis. serial dilution starting at 30 μM. The control compound
as §5, §6

CYP1A2 = CYP1A2 (Homo sapiens, UniProt P05177); assay: CYP isoforms inhibition; type: in vitro ADME; conditions: 5-dose, 3-fold dilution starting at 30 µM; in-house
CYP1A2, sequence (P05177 whole entry, canonical isoform): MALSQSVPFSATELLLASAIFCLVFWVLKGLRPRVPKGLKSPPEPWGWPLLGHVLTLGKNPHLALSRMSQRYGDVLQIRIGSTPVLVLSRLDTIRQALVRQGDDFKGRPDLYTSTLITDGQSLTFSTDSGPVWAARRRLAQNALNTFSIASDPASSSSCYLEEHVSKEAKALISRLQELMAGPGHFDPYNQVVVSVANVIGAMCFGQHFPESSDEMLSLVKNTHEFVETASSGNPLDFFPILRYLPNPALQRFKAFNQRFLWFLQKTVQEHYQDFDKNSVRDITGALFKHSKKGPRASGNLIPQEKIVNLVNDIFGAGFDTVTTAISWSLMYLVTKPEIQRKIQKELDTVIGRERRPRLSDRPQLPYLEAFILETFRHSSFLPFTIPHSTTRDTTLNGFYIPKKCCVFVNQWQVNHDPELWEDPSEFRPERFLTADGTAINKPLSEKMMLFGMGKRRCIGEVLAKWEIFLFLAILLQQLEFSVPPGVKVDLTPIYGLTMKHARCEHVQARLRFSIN
Protocol: as §1, §2, §7, §8, §9, §5, §6

CYP2C8 = target: T5, CYP2C8 (Homo sapiens, UniProt P10632); assay: CYP isoforms inhibition; type: in vitro ADME; conditions: 5-dose, 3-fold dilution starting at 30 µM
T5 construct: Cambridge Bioscience Limited (ran the assay)
T5 sequence (P10632 whole entry, canonical isoform): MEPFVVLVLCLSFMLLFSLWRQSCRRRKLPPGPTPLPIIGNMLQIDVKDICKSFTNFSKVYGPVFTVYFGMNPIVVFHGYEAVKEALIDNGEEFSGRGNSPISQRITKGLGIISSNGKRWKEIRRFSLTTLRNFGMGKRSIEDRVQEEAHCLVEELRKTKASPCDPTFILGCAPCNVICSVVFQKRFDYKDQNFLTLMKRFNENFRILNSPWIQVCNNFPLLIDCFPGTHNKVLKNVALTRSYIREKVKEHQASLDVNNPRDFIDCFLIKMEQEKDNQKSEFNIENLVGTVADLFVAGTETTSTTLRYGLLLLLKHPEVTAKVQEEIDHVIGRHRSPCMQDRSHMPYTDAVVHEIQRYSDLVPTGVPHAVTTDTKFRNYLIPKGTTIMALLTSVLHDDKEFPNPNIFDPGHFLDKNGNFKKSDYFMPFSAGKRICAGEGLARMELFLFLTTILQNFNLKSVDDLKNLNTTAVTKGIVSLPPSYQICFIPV
Protocol: as §1, §2, §7, §8, §9, §5, §6

[3] = Pharmacokinetics after oral and intravenous administration; type: in vivo, rats (Sprague Dawley); conditions: male, plasma, Rat, Dose PO/IV 25/1 mg/kg
Protocol: therapeutic potential in acute myeloid leukemia
sheet for further calculations.
Three male Beagle dogs were administered

[4] = Total blood cell counts in mice with MV-4-11 tumors; conditions: treatment day 15
Source text: All animals were handled in strict accordance with good animal practice as defined by the relevant national and local animal welfare bodies. SCID and SCID/beige C.B-17 mice were provided by Harlan Laboratories or Charles River Laboratories, and were maintained in pathogen free conditions. For the xenograft experiments, age-matched (9-11 weeks old) females were used. 5×10^6 of MV-4-11 or MOLM-16 cells were suspended in a mixture (1:1, v:v) of PBS with Matrigel (BD Biosciences,) and injected subcutaneously (sc), in a total volume of 100 μL, above the groin on the right hind limb. For MOLM-13 and KG-1 cells, a mixture (3:1, v:v) of PBS and Matrigel HC (BD Bioscience,) was used to inject 5 × 10^6 of cell per mouse subcutaneously (sc), in a total volume of 100 μL. When tumors reached 100-130 mm^3, mice were randomized into uniform groups (6-9 mice per group) and subsequently administered the compound. […] At the end of the experiment, mice were anesthetized with isofluran and blood samples for total cell counts and biochemistry were obtained by retro-orbital bleeding. […] 5×10^6 cells suspended in a mixture (3:1, v:v) of PBS and Matrigel were injected as described above. When the tumor volume reached ~120 mm^3, mice were randomized into uniform groups (5 mice per group) and the compound then administered. […] Tumor volume was monitored every second day and calculated using the formula: TV = (a^2×b)/2, where “a” is the short axis in millimeters, and “b” is the long axis in millimeters. Body weight was assessed every day. […]
Supplementary Table 10: Related to Figure 5C. […] The assessment total
performed on treatment day 15.
RBC – red blood cells, HGB – hemoglobin, HCT – hematocrit, WBC – white blood cells, LYMPH – lymphocytes, MONO
– monocytes, GRA – granulocytes, PLT – platelet, MPV – mean platelet volume.

[5] = tested on: S6 phosphorylation (Ser235/236) in MV-4-11 cells; assay: S6 phosphorylation, flow cytometry; type: cell-based; conditions: Homo sapiens, MV4-11; MV-4-11, 4 hours
Protocol: (§10) For biomarker experiments, MV-4-11, MOLM-13 and KG-1 cells were seeded at 1 × 10^6 in 3 ml of medium, while MOLM-16 cells were seeded at 1 × 10^6 in 4 ml of medium and left for ~ 18 hours (37°C, 5% CO2). […] Final concertation of DMSO was 0.1%. After 4h of incubation cells were harvested, centrifuged and washed with ice-cold PBS. Cells were fixed with 4% paraformaldehyde buffered with PBS and permeabilized with 90% methanol. Cells were incubated with primary antibody (S6 phopspho-Ser235/236, Cell Signaling, Cat. No: 4856) diluted 1:200 in 0.5% BSA/PBS. […] Cells were analyzed on Flow Cytometer BD LSR II with an excitation wavelength of 488 nm and peak emission 590 nm.

[6] = tested on: S6 phosphorylation (Ser235/236) in KG-1 cells; assay: S6 phosphorylation, flow cytometry; type: cell-based; conditions: Homo sapiens; KG-1, 4 hours
Protocol: as §10

[7] = tested on: S6 phosphorylation (Ser235/236) in MOLM-16 cells; assay: S6 phosphorylation, flow cytometry; type: cell-based; conditions: MOLM16; MOLM-16, 4 hours
Protocol: as §10

[8] = tested on: S6 phosphorylation (Ser235/236) in MOLM-13 cells; assay: S6 phosphorylation, flow cytometry; type: cell-based; conditions: Homo sapiens; MOLM-13, 4 hours
Protocol: as §10

T1 sequence (P08684 whole entry, canonical isoform): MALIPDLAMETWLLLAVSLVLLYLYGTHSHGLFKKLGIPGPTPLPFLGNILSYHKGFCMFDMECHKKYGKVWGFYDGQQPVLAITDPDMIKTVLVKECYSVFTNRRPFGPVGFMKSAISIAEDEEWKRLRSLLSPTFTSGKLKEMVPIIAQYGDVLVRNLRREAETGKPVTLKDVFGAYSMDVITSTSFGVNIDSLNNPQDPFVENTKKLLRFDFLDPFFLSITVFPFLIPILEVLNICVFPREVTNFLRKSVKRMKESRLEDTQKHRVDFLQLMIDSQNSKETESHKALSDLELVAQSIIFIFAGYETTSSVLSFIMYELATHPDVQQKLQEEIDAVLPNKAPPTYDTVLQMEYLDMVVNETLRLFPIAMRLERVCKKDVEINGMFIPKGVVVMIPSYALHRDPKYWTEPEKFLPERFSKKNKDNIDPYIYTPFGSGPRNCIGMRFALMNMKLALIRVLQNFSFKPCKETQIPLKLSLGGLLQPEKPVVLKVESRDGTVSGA

## CC(C)n1c(C2CCNCC2)nc2c([N+](=O)[O-])c(Br)c(Br)cc21 [SEL24-B489, 5,6-dibromo-4-nitro-2-(piperidin-4-yl)-1-(propan-2-yl)-1H-1,3-benzodiazole]
[1]
  half-life at 1 µM: 7.6 h
CYP3A4
  IC50: > 100000 nM
CYP2D6
  IC50: 10000 nM
CYP2C19
  IC50: > 70000 nM
PIM1
  Kd: 2 nM
MOLM-16
  GI50: 42 nM
MOLM-16; read-out: LC50
  CC50: 153 nM
[2]
  half-life at 1 µM: 2.6 h
CYP2B6
  IC50: > 40000 nM
CYP1A2
  IC50: > 30000 nM
CYP2C8
  IC50: > 30000 nM
[3]; Sprague Dawley, 25 mg/kg
  Cmax: 913 ng/mL
  Tmax: 6.7 h
[3]; Sprague Dawley
  AUC(0-t): 19600 ng·h/mL
  half-life: 10 h
[3]; Sprague-Dawley, 25 mg/kg, read-out: F (bioavailability)
  bioavailability: 52%
[4]; SEL24-B489 25 mg/kg
  GRA: 42.2%
  HCT: 48.8%
  HGB: 14.6 g/dL
  LYMPH: 47.2%
  MONO: 10.6%
  MPV: 6.1 μm3
  PLT: 1016 103/mm3
  RBC: 9.8 106/mm3
  WBC: 3.1 103/mm3
[4]; SEL24-B489 50 mg/kg
  GRA: 49.1%
  HCT: 47.4%
  HGB: 14.4 g/dL
  LYMPH: 40.3%
  MONO: 10.5%
  MPV: 5.7 μm3
  PLT: 1286 103/mm3
  RBC: 9.6 106/mm3
  WBC: 4.9 103/mm3
[5]
  IC50: 13 nM
[6]
  IC50: 195 nM
[7]
  IC50: 58 nM
[8]
  IC50: 102 nM
